Results on seven compounds are retold here after US9540299B2, “MTOR-independent activator of TFEB for autophagy enhancement and uses thereof” (Hong Kong Baptist University, priority 2015, dated 2017).

For this test, the target named is T1, 3×Flag-TFEB (Homo sapiens, UniProt P19484).
T1 construct: expressed in transfected cells
T1 sequence (P19484 1-476): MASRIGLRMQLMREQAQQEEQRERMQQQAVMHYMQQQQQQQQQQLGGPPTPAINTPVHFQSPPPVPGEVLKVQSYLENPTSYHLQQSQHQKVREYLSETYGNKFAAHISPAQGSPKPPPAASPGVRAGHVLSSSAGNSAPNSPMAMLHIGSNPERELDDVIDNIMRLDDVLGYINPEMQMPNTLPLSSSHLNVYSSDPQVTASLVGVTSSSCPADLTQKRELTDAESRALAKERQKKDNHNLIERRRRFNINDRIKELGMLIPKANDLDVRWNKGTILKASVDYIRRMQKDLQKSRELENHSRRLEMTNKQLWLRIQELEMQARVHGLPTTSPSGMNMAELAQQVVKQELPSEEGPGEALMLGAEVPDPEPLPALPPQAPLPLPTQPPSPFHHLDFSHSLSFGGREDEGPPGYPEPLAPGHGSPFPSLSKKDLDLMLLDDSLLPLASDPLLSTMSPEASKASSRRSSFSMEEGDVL
Put plainly: Nuclear translocation of Flag-TFEB in Hela cells stably expressing 3×Flag-TFEB (immunostaining, western blot). The conditions noted are these: analogs 1 μM, curcumin 10 μM, 12 h, Torin 1 1 μM, 2 h. The format is cell-based. The method, then:
Cells were treated with curcumin (Cur, 10 μM), A2, B3 and C1 (1 μM) for 12 h. […] Data is quantified by ImageJ software and is presented as mean±SD of three replicates for each treatment conditions. At least 1000 cells are analyzed in each treatment group. *p<0.05 vs. the control (0.1% DMSO). FIG. 4C is a western blot showing the expression of endogenous TFEB. […] Data are presented as the mean±SD from three independent experiments. *p<0.05 vs. the control (0.1% DMSO). FIG. 4E is fluorescence images showing expression of 3×Flag-TFEB in Hela cells having treated with Cur (10 μM), A2, B3 and C1 (1 μM) for 12 h. Torin 1 (1 μM) treatment for 2 h is used as a positive control. Cells were fixed and stained with anti-Flag antibody. […] FIG. 4G is the western blot showing the expression of Flag-tagged TFEB in the cytosolic (Cyt.) and nuclear (Nuc.) fractions. ACTB and H3F3A (H3 histone, family 3A) are used as loading control of cytoplasmic and nuclear fraction, respectively. FIG. 4H is showing the relative intensity of TFEB in the cytosolic and nuclear fractions. Data are presented as the mean±SD from three independent experiments. *p<0.05 vs. the control (0.1% DMSO).
HeLa cells stably expressing 3×Flag-TFEB are treated with curcumin analogs E2, E3 and E4 (1 μM) for 12 hours. Torin 1 (1 μM) treatment for 2 hours is used as a positive control. Cells are fixed and stained with anti-Flag antibody (red) and DAPI (blue) (FIG. 18A). TFEB translocate into nucleus are quantified (FIG. 18B). Quantification data are presented as mean±SD of three replicates in a representative experiment. At least 500 cells are analyzed in each treatment group.
HeLa cells stably expressing 3×Flag-TFEB are treated with curcumin analogs E2, E3 and E4 (1 μM) for 12 hours. Torin 1 (1 μM) treatment for 2 hours is used as a positive control. The expression of TFEB in the cytosolic (Cyt.) and nuclear (Nuc.) fractions are determined by western blotting (FIG. 19A) and quantified (FIG. 19B). TUBB (β-tubulin) and H3F3A (H3 histone, family 3A) are used as loading control of cytoplasmic and nuclear fraction respectively. Quantification data are presented as the mean±SD from three independent experiments. *p<0.05 vs. the control (0.1% DMSO).
N2a, Hela and Hela cells stably expressing 3×-Flag-TFEB are cultured in DMEM supplemented with 10% FBS. SH-SY5Y cells are cultured in DMEM/F12 supplemented with 10% FBS. For drug treatment, the full medium is replaced by fresh Opti-MEM I and then the compounds (in 0.1% DMSO) are added to the cells and incubated for 12 h. Inducible PC12 cells overexpressing SNCA (WT and A53T) (a kind gift from Prof. David C. Rubinsztein at Cambridge University) are grown in DMEM supplemented with 10% horse serum, 5% FBS, 50 μg/ml G418, and 150 μg/ml hygromycin B at 37° C., 10% CO2. Cells are treated with 2 μg/ml doxycycline (Dox) for 24 h to induce SNCA expression. The full medium is changed to Opti-MEM I containing the testing compounds for another 48 h.
Cells are lysed on ice in 1× Lysis Buffer (9803, Life Technologies) with complete protease inhibitor mixture (04693124001, Roche Applied Science). Animal tissues are homogenized in nine volumes of ice-cold PBS supplemented with protease inhibitors. Cytosolic and nuclear fractions are isolated using protocols similar to those described previously. Anti-Flag or TFEB antibody is added to the whole cell lysates and Dynabeads® Protein G (10003D, Life Technologies) is used for immunoprecipitation. Proteins are separated by 10-15% SDS-PAGE, transferred, and blotted with the antibodies described. The blots are then incubated with secondary antibodies or the Clean-Blot IP Detection Reagent (21230, Thermo Scientific) at room temperature for 1 h. The protein signals are detected by ECL kit (32106, Pierce) and quantified using ImageJ software.
Cells are seeded on coverslips placed in 24-well plates. […]

On to `O=C(/C=C/c1cccc(C(F)(F)F)c1)/C=C/c1cccc(C(F)(F)F)c1` [A2, 1,5-bis(3-(trifluoromethyl)phenyl)penta-1,4-dien-3-one], for which the “nuclear translocation of Flag-TFEB” value was “no effects”.

For `O=C(/C=C/c1ccc(O)cc1)/C=C/c1ccc(O)cc1` [B3, 1,5-bis(4-hydroxyphenyl)penta-1,4-dien-3-one], the “nuclear translocation of Flag-TFEB” value is reported as “no effects”.

`COc1ccccc1/C=C/C(=O)/C=C/c1ccccc1OC` [C1, 1,5-bis(2-methoxyphenyl)penta-1,4-dien-3-one]: the “nuclear translocation of Flag-TFEB” value is listed as “significantly promotes”.

Turning to `O=C(/C=C/c1ccccc1Cl)/C=C/c1ccccc1Cl` [E2], the “nuclear translocation of Flag-TFEB” value was “significantly promote”.

`O=C(/C=C/c1ccccc1Br)/C=C/c1ccccc1Br` [E3]: the “nuclear translocation of Flag-TFEB” value was “significantly promote”.

For `O=C(/C=C/c1ccccc1I)/C=C/c1ccccc1I` [E4], the “nuclear translocation of Flag-TFEB” value was “significantly promote”.

In the case of `COc1cc(/C=C/C(=O)CC(=O)/C=C/c2ccc(O)c(OC)c2)ccc1O` [curcumin, Curcumin, reference compound], the “nuclear translocation of Flag-TFEB” value is “no effects”.
